These results are taken from patent US20230226137A1, “Novel Pharmaceutical Composition for Treating Dry Eye Syndrome” (Novacell Technology Inc., priority 2020, published 2023).

A word on the IC50: it is the concentration needed to halve the response being measured. A higher IC50 goes with lower potency. What is called EC50 is the concentration giving half of the maximal effect.

Non-standard residues stand in square brackets, D forms with d. Residues, ends and D or L forms follow the SMILES beside them. *: point of attachment. Octanoyl = CCCCCCCC(=O)*

What all share (type): cell-based
One test relates to Pseudomonas aeruginosa. The conditions noted are these: 18 h. The procedure: (§1) In addition, in order to measure the antibacterial activity of the peptide, Staphylococcus aureus, which is a gram-positive bacterium, and Pseudomonas aeruginosa, which is a gram-negative bacterium, were prepared, followed by 4th smearing on a flat medium of an agar, and culturing was performed overnight in a 36° C. incubator. The next day, strain colonies generated on the agar plate medium were inoculated into 3 mL-nutrient broth and cultured overnight in a shaking incubator at 36° C. and 220 rpm. The next day, the bacteria were diluted to measure absorbance at 600 nm, the absorbance was adjusted to 0.5, and the bacteria were diluted in a nutrient broth at a ratio of 1:100. Then, the peptides prepared in the Example were sequentially diluted in a nutrient broth at concentrations of 0, 1.25, 2.5, 5, 10, 20, and 40 μM, prepared 1 mL each, and then 1 mL of the diluted bacteria was inoculated. Then, the mixture was stirred at 36° C. and 220 rpm and incubated for 18 hours, and then the absorbance was measured at 600 nm.

The subject of another test is Staphylococcus aureus. To be noted: 18 h. The procedure:
as §1

The target in the next test is T1, FPR2 (Homo sapiens, UniProt P25090).
T1 construct: expressed in transfected cells; host or cells: RBL cells (FPR2-overexpressing)
T1 sequence (P25090 1-351): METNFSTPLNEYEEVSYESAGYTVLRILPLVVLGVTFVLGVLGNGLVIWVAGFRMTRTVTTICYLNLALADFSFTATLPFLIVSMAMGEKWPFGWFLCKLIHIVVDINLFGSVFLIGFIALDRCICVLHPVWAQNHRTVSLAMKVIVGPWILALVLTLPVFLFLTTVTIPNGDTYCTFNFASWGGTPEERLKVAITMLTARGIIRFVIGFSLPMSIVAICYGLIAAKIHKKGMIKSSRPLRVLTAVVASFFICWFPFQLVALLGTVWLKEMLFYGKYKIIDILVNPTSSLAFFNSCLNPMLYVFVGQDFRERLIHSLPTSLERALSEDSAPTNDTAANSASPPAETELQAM
Kind of test: FPR2 activation, intracellular calcium (Fura-2/AM) in RBL cells overexpressing FPR2. To be noted: calcium ion increase in FPR2-overexpressing RBL cells. The procedure:
The present inventors have observed changes in calcium ion permeability in order to confirm whether or not the immunomodulatory and antibacterial peptide candidates of the present invention activates the immunomodulatory function of a living organism. Specifically, the concentration of calcium ions in cells was measured in order to confirm whether the peptide activates FPR2. To this end, the present inventors used RBL cells in which FPR2 was not expressed, RBL cells in which FPR1 was overexpressed (FPR1-RBL), and RBL cells in which FPR2 was overexpressed, and used Fura-2/AM, a staining material having a strong binding affinity for calcium, in a method for sensitively measuring free intracellular calcium ions. That is, the cells were cultured in RPMI medium containing 10% fetal bovine serum, centrifuged in the mid-log phase (1-3×10^7 cells/mL), and harvested. Then, the cells were washed several times with RPMI medium containing no fetal bovine serum and resuspended in RPMI medium to a concentration of 1×10^7 cells/mL. Then, the Fura-2/AM at a final concentration of 3 μM was added thereto and incubated in an incubator (37° C., 5% CO2) for 45 minutes with continuous stirring. After the appropriate time elapsed, the cells were harvested and washed again several times with RPMI medium. Then, the cells were suspended in an appropriate amount of RPMI medium, in which sulfinpyrazone was supplemented at a concentration of 250 μM, so as to prevent the Fura-2 that entered into the cells from being released to the outside of the cells. Approximately 2×10^6 cells were taken each time and harvested by rapid centrifugation and resuspended in 1 mL of Locke solution in which EGTA was added but no calcium ions were added, and the absorbance ratios at two wavelengths of 340 nm and 380 nm were monitored on a spectrophotometer. After treating with the peptide according to the present invention at different concentrations (1 μM, 0.1 μM, and 0.01 μM) at intervals of about 1 minute, the difference in absorbance at two wavelengths was examined and this was later converted to the concentration of calcium ions freed into the cells according to the method of Grynkiewicz.
For orientation: Calcium flux is commonly read through the fluorescence of an indicator in the cells.

On to `CCCCCCCC(=O)N[C@@H](CCCCN)C(=O)N[C@@H](Cc1c[nH]c2ccccc12)C(=O)N[C@@H](CCCCN)C(=O)N[C@@H](Cc1c[nH]c2ccccc12)C(=O)N[C@@H](CCCNC(=N)N)C(=O)N[C@@H](Cc1ccc(O)cc1)C(=O)N[C@H](CCSC)C(N)=O` [compound 4] (Octanoyl-KWKWRY[dM]-NH2), for which the IC50 with Pseudomonas aeruginosa turned out to be 8.48 µM; with Staphylococcus aureus, 12.3 µM. Also, the half-maximal effective concentration (EC50) on FPR2 is 0.108 µM.
The matching figures for `CSCC[C@@H](NC(=O)[C@H](Cc1ccc(O)cc1)NC(=O)[C@H](CCCNC(=N)N)NC(=O)[C@H](Cc1c[nH]c2ccccc12)NC(=O)[C@H](CCCCN)NC(=O)[C@H](Cc1ccccc1)NC(=O)[C@@H](N)CCCCN)C(N)=O` [compound 3] (H-KFKWRY[dM]-NH2): 7.41 µM, 19.8 µM and 0.0654 µM.
Taken in the same sequence, the figures for `CCCCCCCC(=O)N[C@@H](CCCNC(=N)N)C(=O)N[C@@H](Cc1c[nH]c2ccccc12)C(=O)N[C@@H](CCCNC(=N)N)C(=O)N[C@@H](Cc1c[nH]c2ccccc12)C(=O)N[C@@H](CCCNC(=N)N)C(=O)N[C@@H](Cc1ccc(O)cc1)C(=O)N[C@H](CCSC)C(N)=O` [compound 5] (Octanoyl-RWRWRY[dM]-NH2) were 25.4 µM, 4.86 µM and 0.0907 µM.
The matching figures for `CCCCCCCC(=O)N[C@@H](CCCCN)C(=O)N[C@@H](Cc1ccccc1)C(=O)N[C@@H](CCCCN)C(=O)N[C@@H](Cc1c[nH]c2ccccc12)C(=O)N[C@@H](CCCNC(=N)N)C(=O)N[C@@H](Cc1ccc(O)cc1)C(=O)N[C@H](CCSC)C(N)=O` [compound 2] (Octanoyl-KFKWRY[dM]-NH2): 4.69 µM, 21 µM and 0.0929 µM.
Turning to `CSCC[C@@H](NC(=O)[C@H](Cc1ccc(O)cc1)NC(=O)[C@H](CCCNC(=N)N)NC(=O)[C@H](Cc1c[nH]c2ccccc12)NC(=O)[C@H](CCCNC(=N)N)NC(=O)[C@H](Cc1c[nH]c2ccccc12)NC(=O)[C@@H](N)CCCNC(=N)N)C(N)=O` [compound 6] (H-RWRWRY[dM]-NH2), the IC50 worked out at 6.43 µM with Pseudomonas aeruginosa and 39.9 µM in the test on Staphylococcus aureus. In addition, the EC50 on FPR2 worked out at 0.0303 µM.
